From the supplement of paper PMC8741786
Values after ≈ are worked out from the molar mass of the structure shown.

Key:
Neisseria gonorrhoeae = test: minimum inhibitory concentration (ETEST); conditions: isolate id (sample isolate): 19113052_3; population: MSM; antibiotic use in previous 6 months: No
Description: (§1)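 Oropharyngeal Neisseria isolates from MSM and employees in Belgium were identified to species by MALDI-TOF MS. MICs of azithromycin, ceftriaxone and ciprofloxacin were determined by ETEST on GC agar after 24 h at 36.5 °C and 5-7% CO2, in mg/L. Values beyond the strip range are reported as >256 (azithromycin) or <0.016 (ceftriaxone); isolates that did not grow are NA.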

[1] = system: Neisseria subflava/flavescens/perflava; test: minimum inhibitory concentration (ETEST)
Description: as §1

CC[C@H]1OC(=O)[C@H](C)[C@@H](O[C@H]2C[C@@](C)(OC)[C@@H](O)[C@H](C)O2)[C@H](C)[C@@H](O[C@@H]2O[C@H](C)C[C@H](N(C)C)[C@H]2O)[C@](C)(O)C[C@@H](C)CN(C)[C@H](C)[C@@H](O)[C@]1(C)O [azithromycin]
Conditions	minimum inhibitory concentration [mg/L]
Neisseria gonorrhoeae	0.125 (≈ 0.167 µM)

[1]
Conditions	minimum inhibitory concentration [mg/L]
isolate id (sample isolate): 19041762_1, population: MSM, antibiotic use in previous 6 months: Yes	> 256
isolate id (sample isolate): 19041762_1.1, population: MSM, antibiotic use in previous 6 months: Yes	> 256
isolate id (sample isolate): 19041780_1, population: MSM, antibiotic use in previous 6 months: Yes	> 256
isolate id (sample isolate): 19042150_1, population: MSM, antibiotic use in previous 6 months: Yes	64 (≈ 85.4 µM)
isolate id (sample isolate): 19042150_3, population: MSM, antibiotic use in previous 6 months: Yes	> 256
isolate id (sample isolate): 19042756_1, population: MSM, antibiotic use in previous 6 months: Yes	> 256
isolate id (sample isolate): 19042756_2, population: MSM, antibiotic use in previous 6 months: Yes	> 256
isolate id (sample isolate): 19043201_1.1, population: MSM, antibiotic use in previous 6 months: No	96 (≈ 128 µM)
isolate id (sample isolate): 19043201_2.1, population: MSM, antibiotic use in previous 6 months: No	> 256
isolate id (sample isolate): 19043201_3, population: MSM, antibiotic use in previous 6 months: No	96 (≈ 128 µM)
isolate id (sample isolate): 19043274_3, population: MSM, antibiotic use in previous 6 months: Yes	128 (≈ 171 µM)
isolate id (sample isolate): 19050474_1, population: MSM, antibiotic use in previous 6 months: No	8 (≈ 10.7 µM)
isolate id (sample isolate): 19050514_1, population: MSM, antibiotic use in previous 6 months: Yes	> 256
isolate id (sample isolate): 19050949_1, population: MSM, antibiotic use in previous 6 months: No	3 (≈ 4.01 µM)
isolate id (sample isolate): 19050949_2, population: MSM, antibiotic use in previous 6 months: No	4 (≈ 5.34 µM)
isolate id (sample isolate): 19050949_2.1, population: MSM, antibiotic use in previous 6 months: No	4 (≈ 5.34 µM)
isolate id (sample isolate): 19051904_2, population: MSM, antibiotic use in previous 6 months: Yes	2 (≈ 2.67 µM)
isolate id (sample isolate): 19051904_3, population: MSM, antibiotic use in previous 6 months: Yes	1.5 (≈ 2 µM)
isolate id (sample isolate): 19052394_1, population: MSM, antibiotic use in previous 6 months: Yes	2 (≈ 2.67 µM)
isolate id (sample isolate): 19052394_1.1, population: MSM, antibiotic use in previous 6 months: Yes	1.5 (≈ 2 µM)
isolate id (sample isolate): 19060089_1, population: MSM, antibiotic use in previous 6 months: Yes	8 (≈ 10.7 µM)
isolate id (sample isolate): 19062994_1, population: MSM, antibiotic use in previous 6 months: Yes	2 (≈ 2.67 µM)
isolate id (sample isolate): Co000761_2, population: general population, antibiotic use in previous 6 months: No	2 (≈ 2.67 µM)
isolate id (sample isolate): Co000761_3, population: general population, antibiotic use in previous 6 months: No	4 (≈ 5.34 µM)
isolate id (sample isolate): Co000761_5, population: general population, antibiotic use in previous 6 months: No	6 (≈ 8.01 µM)
isolate id (sample isolate): Co000761_6, population: general population, antibiotic use in previous 6 months: No	3 (≈ 4.01 µM)
isolate id (sample isolate): Co000762_3, population: general population, antibiotic use in previous 6 months: No	6 (≈ 8.01 µM)
isolate id (sample isolate): Co000762_4, population: general population, antibiotic use in previous 6 months: No	4 (≈ 5.34 µM)
isolate id (sample isolate): Co000763_2, population: general population, antibiotic use in previous 6 months: No	2 (≈ 2.67 µM)
isolate id (sample isolate): Co000764_1, population: general population, antibiotic use in previous 6 months: No	8 (≈ 10.7 µM)
isolate id (sample isolate): Co000764_2, population: general population, antibiotic use in previous 6 months: No	8 (≈ 10.7 µM)
isolate id (sample isolate): Co000765_2, population: general population, antibiotic use in previous 6 months: No	3 (≈ 4.01 µM)
isolate id (sample isolate): Co000765_3, population: general population, antibiotic use in previous 6 months: No	3 (≈ 4.01 µM)
isolate id (sample isolate): Co000765_4, population: general population, antibiotic use in previous 6 months: No	3 (≈ 4.01 µM)
isolate id (sample isolate): Co000766_1, population: general population, antibiotic use in previous 6 months: No	6 (≈ 8.01 µM)
isolate id (sample isolate): Co000766_3, population: general population, antibiotic use in previous 6 months: No	1 (≈ 1.34 µM)
isolate id (sample isolate): Co000767_1, population: general population, antibiotic use in previous 6 months: No	1 (≈ 1.34 µM)
isolate id (sample isolate): Co000767_2, population: general population, antibiotic use in previous 6 months: No	6 (≈ 8.01 µM)
isolate id (sample isolate): Co000767_4, population: general population, antibiotic use in previous 6 months: No	1.5 (≈ 2 µM)
isolate id (sample isolate): Co000767_5, population: general population, antibiotic use in previous 6 months: No	1.5 (≈ 2 µM)
isolate id (sample isolate): Co000767_6, population: general population, antibiotic use in previous 6 months: No	0.75 (≈ 1 µM)
isolate id (sample isolate): Co000767_7, population: general population, antibiotic use in previous 6 months: No	1.5 (≈ 2 µM)
isolate id (sample isolate): Co000768_1, population: general population, antibiotic use in previous 6 months: No	2 (≈ 2.67 µM)
isolate id (sample isolate): Co000768_2, population: general population, antibiotic use in previous 6 months: No	3 (≈ 4.01 µM)
isolate id (sample isolate): Co000769_1, population: general population, antibiotic use in previous 6 months: No	4 (≈ 5.34 µM)
isolate id (sample isolate): Co000769_2, population: general population, antibiotic use in previous 6 months: No	2 (≈ 2.67 µM)
isolate id (sample isolate): Co000769_4, population: general population, antibiotic use in previous 6 months: No	4 (≈ 5.34 µM)
isolate id (sample isolate): Co000770_2, population: general population, antibiotic use in previous 6 months: No	2 (≈ 2.67 µM)
isolate id (sample isolate): Co000770_4, population: general population, antibiotic use in previous 6 months: No	4 (≈ 5.34 µM)
isolate id (sample isolate): Co000770_6, population: general population, antibiotic use in previous 6 months: No	3 (≈ 4.01 µM)
isolate id (sample isolate): Co000771_2, population: general population, antibiotic use in previous 6 months: No	6 (≈ 8.01 µM)
isolate id (sample isolate): Co000771_3, population: general population, antibiotic use in previous 6 months: No	6 (≈ 8.01 µM)
isolate id (sample isolate): Co000771_5, population: general population, antibiotic use in previous 6 months: No	3 (≈ 4.01 µM)
isolate id (sample isolate): Co000772_1, population: general population, antibiotic use in previous 6 months: No	2 (≈ 2.67 µM)
isolate id (sample isolate): Co000772_2, population: general population, antibiotic use in previous 6 months: No	3 (≈ 4.01 µM)
isolate id (sample isolate): Co000772_4, population: general population, antibiotic use in previous 6 months: No	4 (≈ 5.34 µM)
isolate id (sample isolate): Co000772_5, population: general population, antibiotic use in previous 6 months: No	3 (≈ 4.01 µM)
isolate id (sample isolate): Co000772_6, population: general population, antibiotic use in previous 6 months: No	4 (≈ 5.34 µM)
isolate id (sample isolate): Co000773_1, population: general population, antibiotic use in previous 6 months: No	2 (≈ 2.67 µM)
isolate id (sample isolate): Co000773_2, population: general population, antibiotic use in previous 6 months: No	3 (≈ 4.01 µM)
isolate id (sample isolate): Co000774_2, population: general population, antibiotic use in previous 6 months: No	3 (≈ 4.01 µM)
isolate id (sample isolate): Co000775_1, population: general population, antibiotic use in previous 6 months: No	2 (≈ 2.67 µM)
isolate id (sample isolate): Co000775_2, population: general population, antibiotic use in previous 6 months: No	4 (≈ 5.34 µM)
isolate id (sample isolate): Co000775_3, population: general population, antibiotic use in previous 6 months: No	0.094 (≈ 0.126 µM)
isolate id (sample isolate): Co000776_2, population: general population, antibiotic use in previous 6 months: No	32 (≈ 42.7 µM)
isolate id (sample isolate): Co000776_3, population: general population, antibiotic use in previous 6 months: No	24 (≈ 32 µM)
isolate id (sample isolate): Co000777_1, population: general population, antibiotic use in previous 6 months: No	2 (≈ 2.67 µM)
isolate id (sample isolate): Co000777_2, population: general population, antibiotic use in previous 6 months: No	0.25 (≈ 0.334 µM)
isolate id (sample isolate): Co000777_4, population: general population, antibiotic use in previous 6 months: No	> 256
isolate id (sample isolate): Co000778_1, population: general population, antibiotic use in previous 6 months: No	3 (≈ 4.01 µM)
isolate id (sample isolate): Co000778_2, population: general population, antibiotic use in previous 6 months: No	2 (≈ 2.67 µM)
isolate id (sample isolate): Co000778_3, population: general population, antibiotic use in previous 6 months: No	4 (≈ 5.34 µM)
isolate id (sample isolate): Co000780_4, population: general population, antibiotic use in previous 6 months: No	2 (≈ 2.67 µM)
isolate id (sample isolate): Co000781_1, population: general population, antibiotic use in previous 6 months: No	1.5 (≈ 2 µM)
isolate id (sample isolate): Co000781_3, population: general population, antibiotic use in previous 6 months: No	4 (≈ 5.34 µM)
isolate id (sample isolate): Co000781_4, population: general population, antibiotic use in previous 6 months: No	3 (≈ 4.01 µM)
isolate id (sample isolate): Co000782_2, population: general population, antibiotic use in previous 6 months: No	8 (≈ 10.7 µM)
isolate id (sample isolate): Co000782_3, population: general population, antibiotic use in previous 6 months: No	8 (≈ 10.7 µM)
isolate id (sample isolate): Co000782_4, population: general population, antibiotic use in previous 6 months: No	8 (≈ 10.7 µM)
isolate id (sample isolate): Co000783_1, population: general population, antibiotic use in previous 6 months: No	4 (≈ 5.34 µM)
isolate id (sample isolate): Co000783_2, population: general population, antibiotic use in previous 6 months: No	1.5 (≈ 2 µM)
isolate id (sample isolate): Co000783_5, population: general population, antibiotic use in previous 6 months: No	2 (≈ 2.67 µM)
isolate id (sample isolate): Co000784_1, population: general population, antibiotic use in previous 6 months: No	1.5 (≈ 2 µM)
isolate id (sample isolate): Co000784_2, population: general population, antibiotic use in previous 6 months: No	4 (≈ 5.34 µM)
isolate id (sample isolate): Co000784_5, population: general population, antibiotic use in previous 6 months: No	4 (≈ 5.34 µM)
isolate id (sample isolate): Co000785_1, population: general population, antibiotic use in previous 6 months: No	1 (≈ 1.34 µM)
isolate id (sample isolate): Co000785_2, population: general population, antibiotic use in previous 6 months: No	1.5 (≈ 2 µM)
isolate id (sample isolate): Co000785_3, population: general population, antibiotic use in previous 6 months: No	2 (≈ 2.67 µM)
isolate id (sample isolate): Co000785_4, population: general population, antibiotic use in previous 6 months: No	1 (≈ 1.34 µM)
isolate id (sample isolate): Co000786_1, population: general population, antibiotic use in previous 6 months: No	2 (≈ 2.67 µM)
isolate id (sample isolate): Co000786_2, population: general population, antibiotic use in previous 6 months: No	4 (≈ 5.34 µM)
isolate id (sample isolate): Co000787_1, population: general population, antibiotic use in previous 6 months: No	2 (≈ 2.67 µM)
isolate id (sample isolate): Co000787_2, population: general population, antibiotic use in previous 6 months: No	6 (≈ 8.01 µM)
isolate id (sample isolate): Co000787_4, population: general population, antibiotic use in previous 6 months: No	6 (≈ 8.01 µM)
isolate id (sample isolate): Co000788_2, population: general population, antibiotic use in previous 6 months: No	3 (≈ 4.01 µM)
isolate id (sample isolate): Co000788_3, population: general population, antibiotic use in previous 6 months: No	3 (≈ 4.01 µM)
isolate id (sample isolate): Co000788_5, population: general population, antibiotic use in previous 6 months: No	3 (≈ 4.01 µM)
isolate id (sample isolate): Co000789_1, population: general population, antibiotic use in previous 6 months: No	6 (≈ 8.01 µM)
isolate id (sample isolate): Co000790_2, population: general population, antibiotic use in previous 6 months: No	1 (≈ 1.34 µM)
isolate id (sample isolate): Co000790_4, population: general population, antibiotic use in previous 6 months: No	1.5 (≈ 2 µM)
